# Test system: IRE-1α-mediated XBP-1 splicing in human myeloma MM.1s cells
# Experiment: Cellular EC50: endogenous XBP-1 splicing in myeloma cells by RT-PCR (DTT stress)
# Format: cell-based
# Conditions: MM1.S, average cellular EC50, XBP-1 splicing in myeloma cells, read-out: EC50_av
# Description: Human myeloma MM.1s cells are incubated with a compound for 1.25 hours before stressing the cells with 2 mM dithiothreitol (DTT). After an additional 45 minutes (2 hours total) with compound and DTT, the cells are harvested with TRIZOL® (a mono-phasic solution of phenol and guanidine isothiocyanate), and total RNA is prepared as directed by the manufacturer (Invitrogen). Human XBP-1 is amplified by RT-PCR with the following primers, which flank the 26 base unconventional intron excised by IRE-1α:
# RT-PCR of unstressed (U) cells then generates the upper band. When cells are stressed (S) with the endoplasmic reticulum (ER) stressing agent DTT, IRE-1α is activated due to accumulating unfolded protein and the resulting RT-PCR, product is 26 base pairs shorter.
# Compounds which pass specificity assays are assayed for cellular EC50 using endogenous XBP-1 splicing in myeloma cells. XBP-1 is regulated through the excision of a 26 nucleotide intron from the XBP-1 mRNA by the highly specific endoribonuclease activity of IRE-1α. […] This splicing event is used to measure IRE-1α activity on XBP-1 mRNA in cells and tissues.
# Briefly, compounds are incubated in the presence or absence of an ER stress agent (e.g., DTT), and the ratio of XBP-1u (unspliced) to XBP-1 s (spliced) is quantified by RT-PCR. The ED50 is determined as the 50% XBP-1s to total XPB-1 levels.
row,SMILES,EC50 [µM]
1,Cc1c(-c2ccc(C(=O)NCCN3CCOCC3)cc2)c(=O)oc2c(C=O)c(O)ccc12 [Example 3],< 10
2,COc1cc2c(=O)c(CCC(=O)NCCN(C)C)c(C)oc2c(C=O)c1O [Example 214],> 10
3,COCCNC(=O)CCc1c(C)oc2c(C=O)c(O)ccc2c1=O [Example 215],< 10
4,Cc1oc2c(C=O)c(O)ccc2c(=O)c1CCC(=O)N1CCOCC1 [Example 216],< 10
5,CCNC(=O)CCc1c(C)oc2c(C=O)c(O)ccc2c1=O [Example 217],< 10
6,Cc1oc2c(C=O)c(O)ccc2c(=O)c1CCC(=O)NCCN(C)C [Example 218],> 10
7,Cc1oc2c(C=O)c(O)ccc2c(=O)c1CCC(=O)NCCN1CCOCC1 [Example 219],> 10
8,COCCNC(=O)Cc1c(C)oc2c(C=O)c(O)ccc2c1=O [Example 220],< 10
9,Cc1oc2c(C=O)c(O)ccc2c(=O)c1CC(=O)N1CCOCC1 [Example 221],> 10
10,Cc1oc2c(C=O)c(O)ccc2c(=O)c1CC(=O)N1CCN(C)CC1 [Example 222],< 10
11,CCNC(=O)Cc1c(C)oc2c(C=O)c(O)ccc2c1=O [Example 223],< 10
12,Cc1oc2c(C=O)c(O)ccc2c(=O)c1CC(=O)NCCN(C)C [Example 224],> 10
13,Cc1oc2c(C=O)c(O)ccc2c(=O)c1CC(=O)NCCN1CCOCC1 [Example 225],> 10
14,COCCNC(=O)Cc1c(C)oc2c(C=O)c(O)cc(OC)c2c1=O [Example 226],< 10
15,COc1cc(O)c(C=O)c2oc(C)c(CC(=O)N3CCOCC3)c(=O)c12 [Example 227],< 10
16,CCNC(=O)Cc1c(C)oc2c(C=O)c(O)cc(OC)c2c1=O [Example 228],< 10
17,Cn1c(CCC(=O)N2CCOCC2)nc2ccc(O)c(C=O)c21 [Example 229],> 10
18,CCNC(=O)CCc1nc2c(C=O)c(O)ccc2n1C [Example 230],> 10
19,COCCNC(=O)CCc1nc2c(C=O)c(O)ccc2[nH]1 [Example 231],> 10

row,SMILES,EC50 [µM]
1,O=Cc1c(O)ccc2[nH]c(CCC(=O)N3CCOCC3)nc12 [Example 232],> 10
2,CN1CCC(NC(=O)CCc2nc3c(C=O)c(O)ccc3[nH]2)CC1 [Example 233],< 10
3,CCNC(=O)CCc1nc2c(C=O)c(O)ccc2[nH]1 [Example 234],> 10
4,O=Cc1c(O)ccc2nc(CCC(=O)NCCN3CCOCC3)[nH]c12 [Example 235],> 10
5,CN(C)CCNC(=O)CCc1nc2c(C=O)c(O)ccc2[nH]1 [Example 236],> 10
6,COCCNC(=O)CCc1nc2ccc(O)c(C=O)c2n1C [Example 237],> 10
7,Cn1c(CCC(=O)NCCN2CCOCC2)nc2ccc(O)c(C=O)c21 [Example 238],> 10
8,CN1CCN(C(=O)CCc2nc3ccc(O)c(C=O)c3n2C)CC1 [Example 239],> 10
9,Cn1c(CCC(=O)O)nc2ccc(O)c(C=O)c21 [Example 240],> 10
10,COCCNC(=O)CCc1nc2c(C=O)c(O)ccc2n1C [Example 241],> 10
11,Cn1c(CCC(=O)N2CCOCC2)nc2c(C=O)c(O)ccc21 [Example 242],> 10
12,Cn1c(CCC(=O)NCCN2CCOCC2)nc2c(C=O)c(O)ccc21 [Example 243],> 10
13,CN1CCN(C(=O)CCc2nc3c(C=O)c(O)ccc3n2C)CC1 [Example 244],> 10
14,CCOC(=O)CCc1nc2c(C=O)c(O)ccc2n1C [Example 245],< 10
15,Cn1c(CCC(=O)O)nc2c(C=O)c(O)ccc21 [Example 246],> 10
16,CCOC(=O)CCc1nc2c(C=O)c(O)ccc2o1 [Example 247],> 10
17,O=Cc1c(O)ccc2oc(CCC(=O)O)nc12 [Example 248],> 10
18,COCCNC(=O)CCc1nc2c(C=O)c(O)ccc2o1 [Example 249],> 10

# The next lines start with the values.
row,EC50 [µM],SMILES
1,> 10,O=Cc1c(O)ccc2oc(CCC(=O)N3CCOCC3)nc12 [Example 250]
2,> 10,CN1CCN(C(=O)CCc2nc3c(C=O)c(O)ccc3o2)CC1 [Example 251]
3,> 10,CCNC(=O)CCc1nc2c(C=O)c(O)ccc2o1 [Example 252]
4,< 10,O=Cc1c(O)ccc2oc(CCC(=O)NCCN3CCOCC3)nc12 [Example 253]
5,> 10,CC(C(=O)N1CCOCC1)c1nc2c(C=O)c(O)ccc2o1 (stereo not shown) [Example 254]
6,< 10,Cc1nc2c(C=O)c(O)ccc2o1 [Example 255]
7,> 10,Cc1nc2ccc(O)c(C=O)c2o1 [Example 256]
8,> 10,O=Cc1c(O)ccc2ocnc12 [Example 257]
9,> 10,COCCNC(=O)c1cc2c(C=O)c(O)ccc2s1 [Example 258]
10,> 10,O=Cc1c(O)ccc2sc(C(=O)N3CCOCC3)cc12 [Example 259]
11,> 10,CN1CCN(C(=O)c2cc3c(C=O)c(O)ccc3s2)CC1 [Example 260]
12,< 10,CCNC(=O)c1cc2c(C=O)c(O)ccc2s1 [Example 261]
13,< 10,O=Cc1c(O)ccc2sc(C(=O)NCCN3CCOCC3)cc12 [Example 262]
14,> 10,CN(C)CCNC(=O)c1cc2c(C=O)c(O)ccc2s1 [Example 263]
15,> 10,COC(=O)Cc1cc2c(C=O)c(O)ccc2s1 [Example 264]
16,> 10,O=Cc1c(O)ccc2sc(CC(=O)O)cc12 [Example 265]
17,< 10,COCCNC(=O)CCc1cc2c(C=O)c(O)ccc2s1 [Example 266]
18,> 10,CCOC(=O)CCc1cc2c(C=O)c(O)ccc2s1 [Example 267]

row,EC50 [µM],SMILES
1,> 10,O=Cc1c(O)ccc2sc(CCC(=O)N3CCOCC3)cc12 [Example 268]
2,> 10,CCNC(=O)CCc1cc2c(C=O)c(O)ccc2s1 [Example 269]
3,< 10,CN(C)CCNC(=O)CCc1cc2c(C=O)c(O)ccc2s1 [Example 271]
4,> 10,COCCNC(=O)c1cc2c(C=O)c(O)ccc2[nH]1 [Example 273]
5,> 10,O=Cc1c(O)ccc2[nH]c(C(=O)N3CCOCC3)cc12 [Example 274]
6,> 10,CN1CCN(C(=O)c2cc3c(C=O)c(O)ccc3[nH]2)CC1 [Example 275]
7,> 10,CCNC(=O)c1cc2c(C=O)c(O)ccc2[nH]1 [Example 276]
8,> 10,O=Cc1c(O)ccc2[nH]c(C(=O)NCCN3CCOCC3)cc12 [Example 277]
9,> 10,CN(C)CCNC(=O)c1cc2c(C=O)c(O)ccc2[nH]1 [Example 278]
10,> 10,CCOC(=O)c1cc2c(C=O)c(O)ccc2[nH]1 [Example 279]
11,> 10,CCOC(=O)c1cc2c(C=O)c(O)ccc2o1 [Example 280]
12,> 10,O=Cc1c(O)ccc2oc(C(=O)O)cc12 [Example 281]
13,> 10,COCCNC(=O)c1cc2c(C=O)c(O)ccc2o1 [Example 282]
14,> 10,O=Cc1c(O)ccc2oc(C(=O)N3CCOCC3)cc12 [Example 283]
15,> 10,CN1CCN(C(=O)c2cc3c(C=O)c(O)ccc3o2)CC1 [Example 284]
16,< 10,CCNC(=O)c1cc2c(C=O)c(O)ccc2o1 [Example 285]
17,< 10,O=Cc1c(O)ccc2oc(C(=O)NCCN3CCOCC3)cc12 [Example 286]

# Same assay, conditions: MM1.S, read-out: EC50_av
row,SMILES,EC50 [µM]
1,CC(C)c1cc(=O)oc2c(C=O)c(O)ccc12 [Example 5],< 10
2,O=Cc1c(O)ccc2cc(C(=O)O)c(=O)oc12 [Example 8],> 10
3,Cc1c(-c2cccc(C(=O)N3CCN(C)CC3)c2)c(=O)oc2c(C=O)c(O)ccc12 [Example 10],< 10

# Molecular target: human IRE-1α (GST-IRE-1α) (Homo sapiens (Human), UniProt O75460)
# Sequence (O75460 19-977): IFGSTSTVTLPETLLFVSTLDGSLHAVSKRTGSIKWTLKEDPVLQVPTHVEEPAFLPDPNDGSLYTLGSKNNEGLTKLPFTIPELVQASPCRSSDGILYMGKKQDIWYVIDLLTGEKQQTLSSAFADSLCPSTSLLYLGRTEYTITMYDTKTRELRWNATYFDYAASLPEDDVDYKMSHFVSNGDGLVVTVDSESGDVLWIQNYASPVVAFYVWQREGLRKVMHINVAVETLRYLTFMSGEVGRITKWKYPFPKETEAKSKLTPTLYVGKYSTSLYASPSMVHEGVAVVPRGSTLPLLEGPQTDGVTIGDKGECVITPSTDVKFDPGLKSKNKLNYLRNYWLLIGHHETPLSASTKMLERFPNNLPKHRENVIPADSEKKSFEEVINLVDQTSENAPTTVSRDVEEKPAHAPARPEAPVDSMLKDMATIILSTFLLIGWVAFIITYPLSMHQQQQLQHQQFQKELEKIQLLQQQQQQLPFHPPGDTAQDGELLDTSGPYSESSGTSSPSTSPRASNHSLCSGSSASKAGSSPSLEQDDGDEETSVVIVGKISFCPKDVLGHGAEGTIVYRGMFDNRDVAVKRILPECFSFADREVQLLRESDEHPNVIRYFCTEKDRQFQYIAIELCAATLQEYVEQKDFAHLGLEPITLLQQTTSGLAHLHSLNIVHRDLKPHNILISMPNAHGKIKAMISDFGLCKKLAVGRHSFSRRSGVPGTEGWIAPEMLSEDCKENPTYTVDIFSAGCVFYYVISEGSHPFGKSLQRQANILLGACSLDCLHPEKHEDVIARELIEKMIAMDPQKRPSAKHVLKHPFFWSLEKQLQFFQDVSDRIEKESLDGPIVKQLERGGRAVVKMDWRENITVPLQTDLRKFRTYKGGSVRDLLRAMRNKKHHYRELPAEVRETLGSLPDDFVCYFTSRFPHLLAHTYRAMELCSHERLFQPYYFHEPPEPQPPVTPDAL
# Experiment: IRE-1α assay in vitro: cleavage of Cy5/BHQ2-labelled mini-XBP-1 mRNA stem-loop substrate
# Format: biochemical
# Conditions: average IC50 for inhibition of IRE-1α
# Description: In some embodiments IRE-la inhibitor compounds form a complex with IRE-1α. […] Other substrates also can be used to detect cleavage. See US 2007/0105123.
# A fusion protein comprising glutathione S transferase (GST) and human IRE-1α (GST-IRE-1α) obtained from a 500 ml baculovirus-infected insect cell culture can be used to measure IRE-1α activity in vitro.
# Five μl of a reaction mixture comprising IX reaction buffer (5× reaction buffer is 100 mM Hepes pH 7.5, 250 mM KOAc, 2.5 mM MgCl2), 3 mM DTT, and 0.4% polyethylene glycol water is added to each well of 384 well plates. Twenty-five nanoliters of a 1 mM test compound solution are added to test wells. Three μl of a […] IRE-1α preparation are added to each test well and to positive control wells (final concentration 5.82 ng/well). Negative control wells contain only reaction mixture and test compound.
# After spinning the plates at 1200 rpm for 30 seconds, 3 μl of an IRE-1α human mini-XBP-1 mRNA stem-loop substrate 5′-[…]-3′ (SEQ ID NO:1), labeled with the fluorescent dye Cy5 at the 5′ end and Black Hole Quencher 2 (BH2) at the 3′ end, are added to each well of a control plate. The plates are again spun at 1200 rpm for 30 seconds. Final concentrations for the assay are: 63 nM IRE-1α substrate, 5.82 ng IRE-1α protein, and 2.5 μM test compound.
# The plates are covered with lids and incubated for one hour at 30° C. The plates are then transferred to an ACQUEST™ microplate reader. Data is analyzed using data analysis software, and the percent activity of IRE-1α is calculated.
# IC50 for inhibition of IRE-1α of compounds identified in Table 1 was measured as described in EXAMPLE 35.
row,IC50 [µM],SMILES
1,< 0.1,Cc1c(-c2ccc(C(=O)NCCN3CCOCC3)cc2)c(=O)oc2c(C=O)c(O)ccc12 [Example 3]
2,> 10,CN1CCN(CC(=O)N2CCc3c(ccc(O)c3C=O)C2)CC1 [Example 30]
3,> 10,O=Cc1c(O)ccc2c1CCN(C(=O)c1cccnc1)C2 [Example 31]
4,< 10,Cc1nc(N2CCc3c(ccc(O)c3C=O)C2)sc1C(=O)N1CCN(C)CC1 [Example 32]

row,SMILES,IC50 [µM]
1,CC(C)c1cc(=O)oc2c(C=O)c(O)ccc12 [Example 5],< 0.1
2,O=Cc1c(O)ccc2cc(C(=O)O)c(=O)oc12 [Example 8],> 10
3,Cc1c(-c2cccc(C(=O)N3CCN(C)CC3)c2)c(=O)oc2c(C=O)c(O)ccc12 [Example 10],< 0.1
